{
  "source": "patent US20220242812A1",
  "about": "“SWELL1-LRRC8 COMPLEX MODULATORS” (Washington University, priority 2019, published 2022)",
  "key": {"[1]": {"tested_on": "T2D KKAy mice", "test": "Hyperinsulinemic euglycemic glucose clamp in T2D KKAy mice", "assay_type": "in vivo", "method": "Sterile silicone catheters (Dow-Corning) were placed into the jugular vein of mice under isoflurane anesthesia. Placed catheter was flushed with 200 U/ml heparin in saline and the free end of the catheter was directed subcutaneously via a blunted 14-gauge sterile needle and connected to a small tubing device that exited through the back of the animal. […] Hyperinsulinemic euglycemic clamps were performed on day 8 post-surgery on unrestrained, conscious mice as described elsewhere (Ayala et al., 2011; Kim et al., 2000), with some modifications. Mice were fasted for 6 h at which time insulin and glucose infusion were initiated (time 0). At 80 min prior to time 0 basal sampling was conducted, where whole-body glucose flux was traced by infusion of 0.05 μCi/min D-[3-3H]-glucose (Perkin Elmer), after a priming 5 μCi bolus for 1 minute. After the basal period, starting at time 0 D-[3-3H]-glucose was continuously infused at the 0.2 μCi/min rate and the infusion of insulin (Humulin, Eli Lilly) was initiated with a bolus of 80 mU/kg/min then followed by continuous infusion of insulin at the dose of 8 mU/kg/min throughout the assay. Fifty percent dextrose (Hospira) was infused at a variable rates (GIR) starting at the same time as the initiation of insulin infusion to maintain euglycemia at the targeted level of 150 mg/dl ([…]). Blood glucose (BG) measurements were taken every ten minutes via tail vein sampling using Contour glucometer (Bayer). After mouse reached stable BG and GIR (typically, after 75 minutes since starting the insulin infusion; for some mice, a longer time was required to achieve steady state) a single bolus of 12 μCi of [1-14C]-2-deoxy-D-glucose (Perkin Elmer) in 96 μl of saline was administered. Plasma samples (collected from centrifuged blood) for determination of tracers enrichment, glucose level and insulin concentration were obtained at times −80, −20, −10, 0, and every 10 min starting at 80 min post-insulin (5 min after [1-14C]-2-deoxy-D-glucose bolus was administered) until the conclusion of the assay at 140 min. Tissue samples were then collected from mice under isofluorane anesthesia from organs of interest (e.g., liver, heart, kidney, white adipose tissue, brown adipose tissue, gastrocnemius, soleus etc.) for determination of 1-14C1-2-deoxy-D-glucose tracer uptake. Plasma and tissue samples were processed as described previously (Ayala et al., 2011). Briefly, plasma samples were deproteinized with Ba(OH)2 and ZnSO4 and dried to eliminate tritiated water. The glucose turnover rate (mg/kg-min) was calculated as the rate of tracer infusion (dpm/min) divided by the corrected plasma glucose specific activity (dpm/mg) per kg body weight of the mouse. Fluctuations from steady state were accounted for by use of Steele's model. Plasma glucose was measured using Analox GMD9 system (Analox Technologies).\nTissue samples (˜30 mg each) were homogenized in 750 μl of 0.5% perchloric acid, neutralized with 10 M KOH and centrifuged. The supernatant was then used for first measuring the abundance of total [1-14C] signal (derived from both 1-14C-2-deoxy-D-glucose, 1-14C-2-deoxy-D-glucose 6 phosphate) and, following a precipitation step with 0.3 N […] and 0.3 N ZnSO4, for the measuring of non-phosphorylated 1-14C-2-deoxy-D-glucose. Glycogen was isolated by ethanol precipitation from 30% KOH tissue lysates, as described (Shiota, 2012). Insulin level in plasma at T0 and T140 were measured using a Stellux ELISA rodent insulin kit (Alpco)."}, "[2]": {"tested_on": "HFD-T2D mice, NAFLD", "test": "Liver mass, triglycerides and NAFLD histology in HFD mice", "assay_type": "in vivo", "details": "vs vehicle", "method": "Gross liver weights were measured and identical sections from right medial lobe of liver were dissected for further examinations. Total triglyceride content was determined by homogenizing 10-50 mg of tissue in 1.5 ml of chloroform:methanol (2:1 v/v) and centrifuged at 12000 rpm for 10 mins at 4° C. An aliquot, 20 ul, was evaporated in a 1.5 ml microcentrifuge tube for 30 mins. Triglyceride content was determined by adding 100 μl of Infinity Triglyceride Reagent (Fisher Scientific) to the dried sample followed by 30 min incubation at RT. The samples were then transferred to a 96 well plate along with standards (0-2000 mg/di) and absorbance was measured at 540 nm and the final concentration was determined by normalizing to tissue weight. For histological examination, liver sections were fixed in 10% zinc formalin and paraffin embedded for sectioning. Hematoxylin and eosin (H&E) stained sections were then assessed for steatosis grade, lobular inflammation and hepatocyte ballooning for non-alcoholic fatty liver disease (NAFLD) scoring as described (Kleiner et al., 2005; Liang et al., 2014; Rauckhorst et al., 2017).\nNonalcoholic fatty liver disease (NAFLD), like T2D, is associated with insulin resistance. NASH is an advanced form of nonalcoholic liver disease defined by three histological features: hepatic steatosis, hepatic lobular inflammation, hepatocyte damage (ballooning) and can be present without or without fibrosis. NAFLD and T2D likely share at least some pathophysiologic mechanisms because more than one-third of patients (37%) with T2D have NASH and almost one-half of patients with NASH (44%) have T2D. […] This improved metabolic state can reduce ectopic lipid deposition and NAFLD that is associated with obesity and T2D."}, "[3]": {"details": "HFD 16 weeks then intermittent dosing over 5 weeks"}},
  "data": [
    {"smiles": "CCCCC1(C2CCCC2)Cc2cc(OCCCC(=O)O)c(Cl)c(Cl)c2C1=O", "note": "(stereo not shown) [SN-401, 4-((2-butyl-6,7-dichloro-2-cyclopentyl-1-oxo-2,3-dihydro-1H-inden-5-yl)oxy)butanoic acid]", "values": [
      {"measurement": "Glucose-infusion rate (GIR) to maintain euglycemia", "setting": "[1]; T2D KKAy mice, 5 mg/kg i.p. 4 days, vs vehicle", "result": "higher"},
      {"measurement": "Reduction of hepatic glucose production (Ra) at baseline", "setting": "[1]; T2D KKAy mice, Basal", "result": 40, "unit": "%"},
      {"measurement": "Suppression of hepatic glucose production (Ra) during glucose/insulin infusion", "setting": "[1]; T2D KKAy mice, Clamp", "result": 75, "unit": "%"},
      {"measurement": "Glucose incorporation into glycogen", "setting": "[1]; adipose", "result": "markedly increased"},
      {"measurement": "Insulin-stimulated 2-DG uptake", "setting": "[1]; brown fat", "result": "not"},
      {"measurement": "Insulin-stimulated 2-DG uptake", "setting": "[1]; gonadal white adipose tissue (gWAT)", "result": "enhanced"},
      {"measurement": "Insulin-stimulated 2-DG uptake", "setting": "[1]; inguinal white adipose tissue (iWAT)", "result": "enhanced"},
      {"measurement": "Glucose incorporation into glycogen", "setting": "[1]; liver", "result": "markedly increased"},
      {"measurement": "Insulin-stimulated 2-DG uptake", "setting": "[1]; myocardium", "result": "enhanced"},
      {"measurement": "Glucose incorporation into glycogen", "setting": "[1]; skeletal muscle", "result": "markedly increased"},
      {"measurement": "Insulin-stimulated 2-DG uptake", "setting": "[1]; skeletal muscle", "result": "not"},
      {"measurement": "Absolute and body mass-normalized liver mass", "setting": "[2]; [3]", "result": "reduced"},
      {"measurement": "Hepatic triglyceride concentration", "setting": "[2]; [3]", "result": "lower"},
      {"measurement": "Hepatic steatosis (histologic evaluation)", "setting": "[2]; HFD mice", "result": "significantly reduced"},
      {"measurement": "Hepatocyte damage (histologic evaluation)", "setting": "[2]; HFD mice", "result": "significantly reduced"},
      {"measurement": "Improvement of NAFLD activity score (NAS)", "setting": "[2]; HFD mice", "result": "> 2", "unit": "points"}
    ]}
  ]
}
